How the values were obtained:
[1] = tested on: control sera (pooled serum of ten healthy LUMC hospital workers; commercial negative donor pooled serum from the Dutch bloodbank); format: binding, human; design: Binding of Control serum LUMC to linear peptides / Binding of Control serum Blood-bank to linear peptides / Binding of Control serum LUMC to looped peptides / Binding of Control Serum Blood-Bank to Looped peptides / Binding of Control serum LUMC to linear peptides of the protein M of SARS-CoV Urbani / Binding of Control serum Blood-bank to linear peptides of the protein M of SARS-CoV Urbani / Binding of Control serum LUMC to looped peptides of the protein M of SARS-CoV Urbani / Binding of Control Serum Blood-Bank to Looped peptides of the protein M of SARS-CoV Urbani: unit not given here
[2] = tested on: antibodies in sera from SARS patients (sera 1a, 1b, 2, 6, 37, 62, London, SARS-yellow, SARS-green); format: binding, human; design: Binding of serum 6 to linear peptides of protein X1 of SARS-CoV Urbani / Binding of serum 37 to linear peptides of protein X1 of SARS-CoV Urbani / Binding of serum 6 to looped/cyclic peptide (PEPSCAN-ELISA) / Binding of serum 37 to looped/cyclic peptide (PEPSCAN-ELISA) / Binding of serum 37 to looped/cyclic peptides of protein X1 of SARS-CoV Urbani / Binding of serum 6 to linear peptides of protein X2 / Binding of serum 37 to linear peptides of protein X2 / Binding of serum 37 to looped/cyclic peptides of protein X2 of SARS-CoV Urbani / Binding of serum 6 to linear peptides of protein M of SARS-CoV Urbani / Binding of serum 37 to linear peptides of protein M of SARS-CoV Urbani / Binding of serum 6 to looped/cyclic peptides of protein M of SARS-CoV Urbani / Binding of serum 37 to looped/cyclic peptides of protein M of SARS-CoV Urbani / Binding of serum 6 to linear peptides of protein X3 of SARS-CoV Urbani / Binding of serum 37 to linear peptides of protein X3 of SARS-CoV Urbani / Binding of serum 37 to looped/cyclic peptides of protein X3 of SARS-CoV Urbani / Binding of serum 6 to linear peptides of protein X4 of SARS-CoV Urbani / Binding of serum 37 to linear peptides of protein X4 of SARS-CoV Urbani / Binding of serum 37 to looped/cyclic peptides of protein X4 of SARS-CoV Urbani / Binding of serum 6 to linear peptides of protein X5 of SARS-CoV Urbani / Binding of serum 37 to linear peptides of protein X5 of SARS-CoV Urbani / Binding of serum 37 to looped/cyclic peptides of protein X5 of SARS-CoV Urbani / Binding of serum 6 to linear peptides of protein N of SARS-CoV Urbani / Binding of serum 37 to linear peptides of protein N of SARS-CoV Urbani / Binding of serum 6 to linear peptide (PEPSCAN-ELISA) / Binding of serum 1a to looped/cyclic peptides of protein N of SARS-CoV Urbani / Binding of serum 1b to looped/cyclic peptides of protein N of SARS-CoV Urbani / Binding of serum 2 to looped/cyclic peptides of protein N of SARS-CoV Urbani / Binding of serum 6 to looped/cyclic peptides of protein N of SARS-CoV Urbani / Binding of serum 37 to looped/cyclic peptides of protein N of SARS-CoV Urbani / Binding of serum 62 to looped/cyclic peptides of protein N of SARS-CoV Urbani / Binding of serum London to looped/cyclic peptides of protein N of SARS-CoV Urbani / Binding of serum SARS-green to looped/cyclic peptides of protein N of SARS-CoV Urbani: unit not given here
[3] = tested on: rabbit serum obtained by immunizing a rabbit with the SARS-CoV strain Frankfurt 1; format: binding; design: Binding of a rabbit serum to linear peptides / Binding of a rabbit serum to looped peptides / Rabbit serum linear peptides / Rabbit serum looped peptides / Binding of a rabbit serum to linear peptides of protein N of SARS-CoV Urbani (Rabbit serum linear peptides) / Binding of a rabbit serum to looped/cyclic peptides of protein N of SARS-CoV Urbani (Rabbit serum looped peptides): unit not given here

| Sequence | Binding of Control Serum Blood-Bank to Looped peptides [1] | Binding of Control serum Blood-bank to linear peptides [1] | Binding of Control serum LUMC to linear peptides [1] | Binding of Control serum LUMC to looped peptides [1] | Binding of serum 1a to linear peptides of protein X1 of SARS-CoV Urbani [2] | Binding of serum 1a to looped/cyclic peptide (PEPSCAN-ELISA) [2] | Binding of serum 1b to linear peptides of protein X1 of SARS-CoV Urbani [2] | Binding of serum 1b to looped/cyclic peptide (PEPSCAN-ELISA) [2] | Binding of serum 2 to linear peptides of protein X1 of SARS-CoV Urbani [2] | Binding of serum 2 to looped/cyclic peptide (PEPSCAN-ELISA) [2] | Binding of serum 6 to linear peptides of protein X1 of SARS-CoV Urbani [2] | Binding of serum 6 to looped/cyclic peptide (PEPSCAN-ELISA) [2] | Binding of serum 37 to linear peptides of protein X1 of SARS-CoV Urbani [2] | Binding of serum 37 to looped/cyclic peptide (PEPSCAN-ELISA) [2] | Binding of serum 62 to linear peptides of protein X1 of SARS-CoV Urbani [2] | Binding of serum London to linear peptides of protein X1 of SARS-CoV Urbani [2] | Binding of serum SARS-green to linear peptides of protein X1 of SARS-CoV Urbani [2] | Binding of serum SARS-yellow to linear peptides of protein X1 of SARS-CoV Urbani [2] | Binding of a rabbit serum to linear peptides [3] | Binding of a rabbit serum to looped peptides [3] | also measured |
| --- | --- | --- | --- | --- | --- | --- | --- | --- | --- | --- | --- | --- | --- | --- | --- | --- | --- | --- | --- | --- | --- |
| YKGFQFICNLLLLFV | 0.4 | 1.0 | 0.8 | 0.4 | 0.9 | 0.3 | 0.8 | 0.0 | 0.9 | 0.0 | 0.9 | 0.3 | 0.7 | 0.2 | 1.0 | 0.8 | 0.4 | 0.6 | 0.3 | 0.0 | Binding of serum 62 to looped/cyclic peptide (PEPSCAN-ELISA) [2]: 0.3; Binding of serum London to looped/cyclic peptide (PEPSCAN-ELISA) [2]: 0.2; Binding of serum SARS-green to looped/cyclic peptide (PEPSCAN-ELISA) [2]: 0.3; Binding of serum SARS-yellow to looped/cyclic peptide (PEPSCAN-ELISA) [2]: 0.0 |
| LLYDANYFVCWHTHN | 0.6 | 0.8 | 0.7 | 0.5 | 0.9 | 0.6 | 0.7 | 0.5 | 0.6 | 0.4 | 0.7 | 0.4 | 0.7 | 0.6 | 0.8 | 0.4 | 0.4 | 0.5 | 0.1 | 0.5 | Binding of serum 62 to looped/cyclic peptide (PEPSCAN-ELISA) [2]: 0.6; Binding of serum London to looped/cyclic peptide (PEPSCAN-ELISA) [2]: 0.2; Binding of serum SARS-green to looped/cyclic peptide (PEPSCAN-ELISA) [2]: 0.3; Binding of serum SARS-yellow to looped/cyclic peptide (PEPSCAN-ELISA) [2]: 0.4 |
| YSPLFLIVAALVFLI | 0.4 | 0.6 | 0.5 | 0.7 |  |  |  |  |  |  |  |  |  |  |  |  |  |  |  |  | Binding of serum 1a to linear peptides of protein X4 of SARS-CoV Urbani [2]: 0.7; Binding of serum 1a to looped/cyclic peptides of protein X4 of SARS-CoV Urbani [2]: 0.7; Binding of serum 1b to linear peptides of protein X4 of SARS-CoV Urbani [2]: 0.3; Binding of serum 1b to looped/cyclic peptides of protein X4 of SARS-CoV Urbani [2]: 0.3; Binding of serum 2 to linear peptides of protein X4 of SARS-CoV Urbani [2]: 0.5; Binding of serum 2 to looped/cyclic peptides of protein X4 of SARS-CoV Urbani [2]: 0.6; Binding of serum 6 to linear peptides of protein X4 of SARS-CoV Urbani [2]: 0.5; Binding of serum 6 to looped/cyclic peptides of protein X4 of SARS-CoV Urbani [2]: 0.4; Binding of serum 37 to linear peptides of protein X4 of SARS-CoV Urbani [2]: 0.7; Binding of serum 37 to looped/cyclic peptides of protein X4 of SARS-CoV Urbani [2]: 0.6; Binding of serum 62 to linear peptides of protein X4 of SARS-CoV Urbani [2]: 0.7; Binding of serum 62 to looped/cyclic peptides of protein X4 of SARS-CoV Urbani [2]: 0.6; Binding of serum London to linear peptides of protein X4 of SARS-CoV Urbani [2]: 0.7; Binding of serum London to looped/cyclic peptides of protein X4 of SARS-CoV Urbani [2]: 0.3; Binding of serum SARS-green to linear peptides of protein X4 of SARS-CoV Urbani [2]: 0.5; Binding of serum SARS-green to looped/cyclic peptides of protein X4 of SARS-CoV Urbani [2]: 0.6; Binding of serum SARS-yellow to linear peptides of protein X4 of SARS-CoV Urbani [2]: 0.4; Binding of serum SARS-yellow to looped/cyclic peptides of protein X4 of SARS-CoV Urbani [2]: 0.4; Rabbit serum linear peptides [3]: 0.3; Rabbit serum looped peptides [3]: 0.5 |
| ITTDTGIENATFFIF | 0.6 | 0.4 | 0.9 | 0.9 | 0.8 |  | 0.7 |  | 0.6 |  | 0.5 |  | 0.6 |  | 0.5 | 0.3 | 0.3 | 0.5 | 0.1 | 0.6 | Binding of serum 1a to looped/cyclic peptides of protein X1 of SARS-CoV Urbani [2]: 0.7; Binding of serum 1b to looped/cyclic peptides of protein X1 of SARS-CoV Urbani [2]: 0.6; Binding of serum 2 to looped/cyclic peptides of protein X1 of SARS-CoV Urbani [2]: 0.6; Binding of serum 6 to looped/cyclic peptides of protein X1 of SARS-CoV Urbani [2]: 0.5; Binding of serum 37 to looped/cyclic peptides of protein X1 of SARS-CoV Urbani [2]: 0.9; Binding of serum 62 to looped/cyclic peptides of protein X1 of SARS-CoV Urbani [2]: 0.8; Binding of serum London to looped/cyclic peptides of protein X1 of SARS-CoV Urbani [2]: 0.3; Binding of serum SARS-green to looped/cyclic peptides of protein X1 of SARS-CoV Urbani [2]: 0.6; Binding of serum SARS-yellow to looped/cyclic peptides of protein X1 of SARS-CoV Urbani [2]: 0.7 |
| SCELYHYQECVRGTT | 0.6 | 0.5 | 0.3 | 0.8 |  |  |  |  |  |  |  |  |  |  |  |  |  |  |  |  | Binding of serum 1a to linear peptides of protein X4 of SARS-CoV Urbani [2]: 0.8; Binding of serum 1a to looped/cyclic peptides of protein X4 of SARS-CoV Urbani [2]: 0.5; Binding of serum 1b to linear peptides of protein X4 of SARS-CoV Urbani [2]: 0.6; Binding of serum 1b to looped/cyclic peptides of protein X4 of SARS-CoV Urbani [2]: 0.4; Binding of serum 2 to linear peptides of protein X4 of SARS-CoV Urbani [2]: 0.4; Binding of serum 2 to looped/cyclic peptides of protein X4 of SARS-CoV Urbani [2]: 0.5; Binding of serum 6 to linear peptides of protein X4 of SARS-CoV Urbani [2]: 0.5; Binding of serum 6 to looped/cyclic peptides of protein X4 of SARS-CoV Urbani [2]: 0.5; Binding of serum 37 to linear peptides of protein X4 of SARS-CoV Urbani [2]: 0.7; Binding of serum 37 to looped/cyclic peptides of protein X4 of SARS-CoV Urbani [2]: 0.6; Binding of serum 62 to linear peptides of protein X4 of SARS-CoV Urbani [2]: 0.6; Binding of serum 62 to looped/cyclic peptides of protein X4 of SARS-CoV Urbani [2]: 0.5; Binding of serum London to linear peptides of protein X4 of SARS-CoV Urbani [2]: 0.8; Binding of serum London to looped/cyclic peptides of protein X4 of SARS-CoV Urbani [2]: 0.3; Binding of serum SARS-green to linear peptides of protein X4 of SARS-CoV Urbani [2]: 0.5; Binding of serum SARS-green to looped/cyclic peptides of protein X4 of SARS-CoV Urbani [2]: 0.2; Binding of serum SARS-yellow to linear peptides of protein X4 of SARS-CoV Urbani [2]: 0.2; Binding of serum SARS-yellow to looped/cyclic peptides of protein X4 of SARS-CoV Urbani [2]: 0.2; Rabbit serum linear peptides [3]: 0.4; Rabbit serum looped peptides [3]: 0.0 |

— patent publication US20070128217A1 (priority 2003, published 2007)
